Assay results reported in the NIST ThermoML archive (doi:10.1016/j.jct.2010.08.019).
Where “and” joins values, the source holds several entries; their conditions need not be identical. Equal values may be shown once. Numbers after ± are expanded uncertainties.

Experiments:
[1] = refractive index (Na D-line) (dimensionless); details: Liquid, Standard Abbe refractometry
[2] = for surface tension liquid-gas: Wilhelmy-plate method; for viscosity / mass density: Liquid; for viscosity: Falling or rolling sphere viscometry; for mass density: Vibrating tube method
[3] = refractive index (Na D-line) (dimensionless); xn = mol fraction of the nth substance listed; details: 101 kPa, Liquid, Standard Abbe refractometry
[4] = xn = mol fraction of the nth substance listed; details: for surface tension liquid-gas: Wilhelmy-plate method; for viscosity / mass density: 101 kPa, Liquid; for viscosity: Falling or rolling sphere viscometry; for mass density: Vibrating tube method

CC(C)CC(C)(C)C [2,2,4-trimethylpentane]
Details	mass density, [2] [kg/m3]	refractive index, [1]	viscosity, [2] [mPa·s]
293.15 K, 101 kPa	691.98 ± 0.18	1.39161 ± 0.00033	0.503 ± 0.009
298.15 K, 101.33 kPa	687.7 ± 0.2	1.38906 ± 0.00033	0.475 ± 0.009
303.15 K, 101 kPa	683.61 ± 0.18	1.3866 ± 0.00033	0.447 ± 0.009
313.15 K, 101 kPa	675.23 ± 0.18	1.38143 ± 0.00033	0.404 ± 0.009
323.15 K, 101 kPa	666.8 ± 0.19	1.37627 ± 0.00033	0.365 ± 0.009

[2]
Details	surface tension liquid-gas [mN/m]
293.15 K	18.8 ± 0.4
298.15 K	18.3 ± 0.4
303.15 K	17.9 ± 0.4
313.15 K	16.9 ± 0.4
323.15 K	16.2 ± 0.4

CC(C)CC(C)(C)C [2,2,4-trimethylpentane] + C1CCOCC1
x2 = 0
Details	mass density, [4] [kg/m3]	refractive index, [3]	surface tension liquid-gas, [4] [mN/m]	viscosity, [4] [mPa·s]
293.15 K	691.98 ± 0.18	1.39161 ± 0.00033	18.8 ± 0.4	0.503 ± 0.009
303.15 K	683.61 ± 0.18	1.3866 ± 0.00033	17.9 ± 0.4	0.447 ± 0.009
313.15 K	675.23 ± 0.18	1.38143 ± 0.00033	16.9 ± 0.4	0.404 ± 0.009
323.15 K	666.8 ± 0.19	1.37627 ± 0.00033	16.2 ± 0.4	0.365 ± 0.009

CC(C)O [propan-2-ol]
Details	mass density, [2] [kg/m3]	refractive index, [1]	viscosity, [2] [mPa·s]
293.15 K, 101 kPa	785.44 ± 0.15	1.37724 ± 0.00033	2.362 ± 0.02
298.15 K, 101.33 kPa	781.05 ± 0.15	1.3752 ± 0.00033	2.04 ± 0.02
303.15 K, 101 kPa	776.75 ± 0.15	1.37286 ± 0.00033	1.769 ± 0.016
313.15 K, 101 kPa	767.93 ± 0.15	1.36852 ± 0.00033	1.331 ± 0.013
323.15 K, 101 kPa	758.9 ± 0.16	1.36363 ± 0.00033	1.019 ± 0.012

[2]
Details	surface tension liquid-gas [mN/m]
293.15 K	21.3 ± 0.4
298.15 K	20.9 ± 0.4
303.15 K	20.4 ± 0.4
313.15 K	19.6 ± 0.4
323.15 K	18.8 ± 0.4

CC(C)O [propan-2-ol] + C1CCOCC1
x1 = 1
Details	mass density, [4] [kg/m3]	refractive index, [3]	surface tension liquid-gas, [4] [mN/m]	viscosity, [4] [mPa·s]
293.15 K	785.44 ± 0.15	1.37724 ± 0.00033	21.3 ± 0.4	2.362 ± 0.02
303.15 K	776.75 ± 0.15	1.37286 ± 0.00033	20.4 ± 0.4	1.769 ± 0.016
313.15 K	767.93 ± 0.15	1.36852 ± 0.00033	19.6 ± 0.4	1.331 ± 0.013
323.15 K	758.9 ± 0.16	1.36363 ± 0.00033	18.8 ± 0.4	1.019 ± 0.012

CC(C)O [propan-2-ol] + CC(C)CC(C)(C)C
x1 = 1
Details	mass density, [4] [kg/m3]	refractive index, [3]	surface tension liquid-gas, [4] [mN/m]	viscosity, [4] [mPa·s]
293.15 K	785.44 ± 0.15	1.37724 ± 0.00033	21.3 ± 0.4	2.362 ± 0.02
303.15 K	776.75 ± 0.15	1.37286 ± 0.00033	20.4 ± 0.4	1.769 ± 0.016
313.15 K	767.93 ± 0.15	1.36852 ± 0.00033	19.6 ± 0.4	1.331 ± 0.013
323.15 K	758.9 ± 0.16	1.36363 ± 0.00033	18.8 ± 0.4	1.019 ± 0.012

C1CCOCC1 [tetrahydropyran]
Details	mass density, [2]	refractive index, [1]	viscosity, [2] [mPa·s]
293.15 K, 101 kPa	884.27 ± 0.23 kg/m3	1.39161 ± 0.00037 and 1.42109 ± 0.00037	0.86 ± 0.011
298.15 K, 101.33 kPa	878.8 ± 0.2 kg/m3	1.4186 ± 0.0004	0.8 ± 0.01
303.15 K, 101 kPa	874.07 ± 0.23 kg/m3	1.3866 ± 0.00037 and 1.41599 ± 0.00037	0.749 ± 0.01
313.15 K, 101 kPa	863.76 ± 0.47 kg/m3	1.38143 ± 0.00037 and 1.41092 ± 0.00037	0.658 ± 0.01
323.15 K, 101 kPa	666.8 ± 0.83 kg/m3 and 853.46 ± 0.24 kg/m3	1.37627 ± 0.00037 and 1.40554 ± 0.00037	0.565 ± 0.009

[2]
Details	surface tension liquid-gas [mN/m]
293.15 K	27.5 ± 0.4
298.15 K	27.2 ± 0.4
303.15 K	26.2 ± 0.4
313.15 K	25.1 ± 0.4
323.15 K	23.8 ± 0.4
